Measured values as given in ChEMBL document CHEMBL3407464, “Novel 5-HT6 receptor antagonists/D2 receptor partial agonists targeting behavioral and psychological symptoms of dementia” (Eur J Med Chem, 2015).
pEC50, pIC50, pKi: −log10 of the molar value. Values after ≈ are worked out from the molar mass of the structure shown. Each block holds one compound with its values, some of them ahead of it.

Key:
[1] = molecular target: T1, 5-hydroxytryptamine receptor 6 (Homo sapiens, UniProt P50406); assay: Agonist activity at human 5-HT6 receptor expressed in CHOK1 cells assessed as calcium mobilization at 1 uM by radiometric and luminescence plate counting method; format: functional, cell-based; settings: CHO-K1
D(2) dopamine receptor [2] = molecular target: T2, D(2) dopamine receptor (Homo sapiens, UniProt P14416); assay: Antagonist activity at human dopamine D2 receptor expressed in CHOK1 cells assessed as inhibition of apomorphine-induced calcium mobilization at 1 uM by radiometric and luminescence plate counting method; format: functional, cell-based; settings: CHO-K1
D(2) dopamine receptor [3] = molecular target: T2, D(2) dopamine receptor; assay: Agonist activity at human dopamine D2 receptor expressed in CHOK1 cells assessed as calcium mobilization at 1 uM by radiometric and luminescence plate counting method; format: functional, cell-based; settings: CHO-K1
[4] = molecular target: T3, Muscarinic acetylcholine receptor M1 (Homo sapiens) (UniProt P11229); assay: Inhibition of muscarinic M1 receptor (unknown origin) assessed as reduction in control ligand binding at 1 uM
T3 sequence (whole entry): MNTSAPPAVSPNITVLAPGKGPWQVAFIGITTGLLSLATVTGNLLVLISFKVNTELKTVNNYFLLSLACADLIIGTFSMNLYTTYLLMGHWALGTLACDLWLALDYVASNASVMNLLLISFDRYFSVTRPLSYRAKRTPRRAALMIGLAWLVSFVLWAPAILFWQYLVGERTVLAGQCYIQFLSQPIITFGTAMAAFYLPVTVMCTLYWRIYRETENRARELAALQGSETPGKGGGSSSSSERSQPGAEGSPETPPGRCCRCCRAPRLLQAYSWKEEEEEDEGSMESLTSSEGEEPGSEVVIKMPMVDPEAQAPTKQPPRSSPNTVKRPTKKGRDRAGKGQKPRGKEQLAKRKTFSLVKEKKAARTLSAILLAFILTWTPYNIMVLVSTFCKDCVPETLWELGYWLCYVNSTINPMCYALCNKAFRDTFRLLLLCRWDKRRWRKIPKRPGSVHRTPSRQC

hERG (KCNH2) = hERG (KCNH2) (Homo sapiens, UniProt Q12809); assay: Inhibition of human ERG expressed in CHO cells assessed as reduction in channel current at holding potential of 0 mV at 1 uM by electrophysiological method; format: cell-based; settings: CHO cells expressing human ERG
[5] = molecular target: T1, 5-hydroxytryptamine receptor 6; assay: biochemical
D(2) dopamine receptor [6] = molecular target: T2, D(2) dopamine receptor; assay: biochemical
[7] = molecular target: T1, 5-hydroxytryptamine receptor 6; assay: Antagonist activity against human recombinant 5-HT6 receptor expressed in CHOK1 cells assessed as reduction in serotonin-induced increase in intracellular Ca2+ levels by aequorin based radiometric and luminescence plate counting method; format: functional, cell-based; settings: CHO-K1
[8] = molecular target: T4, Sodium-dependent serotonin transporter (Homo sapiens, UniProt P31645); assay: Displacement of [3H]imipramine from human SERT expressed in CHO cells at 1 uM; format: cell-based
[9] = Protein binding in human plasma 1 x 10^-5 M; format: ADME, cell-free; settings: read-out: PPB
Rattus norvegicus [10] = assay: Procognitive effect in intraperitoneally dosed 3-months old Wistar rat assessed as extinction of non-reinforced responding for sweet reward; format: functional; settings: ip, read-out: MED
[11] = molecular target: 5-hydroxytryptamine receptor 2C (Homo sapiens, UniProt P28335); assay: biochemical
D(2) dopamine receptor [12] = molecular target: T2, D(2) dopamine receptor; assay: Agonist activity at human recombinant dopmaine D2L receptor expressed in CHOK1 cells assessed as intracellular Ca2+ levels by aequorin based radiometric and luminescence plate counting method; format: functional, cell-based, CHO-K1
[13] = molecular target: T4, Sodium-dependent serotonin transporter; assay: biochemical
[14] = Half life in human liver microsomes at 1 x 10^-7 M; format: ADME
[15] = molecular target: Muscarinic acetylcholine receptor M1 (Homo sapiens, UniProt P11229); assay: biochemical; format: cell-based, CHO
Rattus norvegicus [16] = assay: Anti-depressant-like activity in intraperitoneally dosed >18-months old Wistar rat by Porsolt's forced swim test; format: functional; settings: ip, read-out: MED
[17] = Permeability across apical to basolateral side in human Caco2 cells at 1 x 10^-5 M; format: ADME, cell-based; settings: Caco-2, read-out: permeability
[18] = Intrinsic clearance in human liver microsomes at 1 x 10^-7 M; format: ADME; settings: read-out: CLH
[19] = molecular target: Alpha-1A adrenergic receptor (Homo sapiens, UniProt P35348); assay: biochemical
[20] = molecular target: Alpha-2C adrenergic receptor (Homo sapiens) (UniProt P18825); assay: Displacement of [3H]RX-821002 from human adrenergic alpha2C receptor expressed in CHO cells at 1 uM; format: cell-based
[21] = molecular target: 5-hydroxytryptamine receptor 1A (Homo sapiens, UniProt P08908); assay: biochemical
Rattus norvegicus [22] = assay: Anxiolytic activity in intraperitoneally dosed >18-months old Wistar rat by open-field test; format: functional; settings: ip, read-out: MED
Histamine H1 receptor [23] = molecular target: T5, Histamine H1 receptor (Homo sapiens, UniProt P35367); assay: Displacement of [3H]pyrilamine from human histamine H1 receptor expressed in HEK-293 cells at 1 uM; format: cell-based; settings: HEK293
D(3) dopamine receptor [24] = molecular target: T6, D(3) dopamine receptor (Homo sapiens, UniProt P35462); assay: Displacement of [3H]methylspiperone from human dopamine D3 receptor expressed in CHO cells; format: cell-based
[25] = Aqueous solubility in simulated intestinal fluid at 2 x 10^-4 M; format: physicochemical
D(1A) dopamine receptor = D(1A) dopamine receptor (Homo sapiens, UniProt P21728); assay: biochemical
[26] = molecular target: T7, 5-hydroxytryptamine receptor 2A (Homo sapiens, UniProt P28223); settings: HEK293, 1 uM
[27] = Metabolic stability in human liver microsomes assessed as compound remaining after 60 mins at 1 x 10^-7 M (reference value: 100%); format: ADME; settings: read-out: Stability
[28] = molecular target: 5-hydroxytryptamine receptor 2C (Homo sapiens) (UniProt P28335); assay: Displacement of [3H]mesulergine from human 5-HT2C receptor expressed in HEK-293 cells at 1 uM; format: cell-based; settings: HEK293
[29] = molecular target: T3, Muscarinic acetylcholine receptor M1 (Homo sapiens); assay: Displacement of [3H]pirenzepine from human muscarinic M1 receptor expressed in CHO cells at 1 uM; format: cell-based
Rattus norvegicus [30] = assay: Anti-depressant-like activity in intraperitoneally dosed 3-months old Wistar rat assessed as increase in saccharin self-administration; format: functional; settings: ip, read-out: MED
Histamine H1 receptor [31] = molecular target: T5, Histamine H1 receptor; assay: biochemical; format: cell-based, HEK293
[32] = molecular target: Alpha-1A adrenergic receptor (Homo sapiens) (UniProt P35348); settings: CHO, 1 uM
[33] = Metabolic stability in human liver microsomes assessed as compound remaining after 45 mins at 1 x 10^-7 M (reference value: 100%); format: ADME; settings: read-out: Stability
D(4) dopamine receptor = D(4) dopamine receptor (Homo sapiens, UniProt P21917); assay: Displacement of [3H]methylspiperone from human dopamine D4 receptor expressed in CHO cells; format: cell-based
[34] = molecular target: D(4) dopamine receptor (Homo sapiens) (UniProt P21917); assay: Displacement of [3H]methylspiperone from human dopamine D4 receptor expressed in CHO cells at 1 uM; format: cell-based
[35] = molecular target: T7, 5-hydroxytryptamine receptor 2A; assay: Displacement of [3H]ketanserin from human 5-HT2A receptor expressed in HEK-293 cells; format: cell-based, HEK293
[36] = molecular target: Alpha-2C adrenergic receptor (Homo sapiens, UniProt P18825); assay: biochemical
[37] = molecular target: Voltage-gated inwardly rectifying potassium channel KCNH2 (Homo sapiens, UniProt Q12809)
[38] = molecular target: T8, 5-hydroxytryptamine receptor 7 (Homo sapiens, UniProt P34969); assay: Displacement of [3H]LSD from human 5-HT7 receptor expressed in CHO cells at 1 uM; format: cell-based
Rattus norvegicus [39] = assay: Induction of reinforcement of lever pressing in intraperitoneally dosed Wistar rat in absence of sweet reward; format: organism-based; settings: in vivo, ip
D(3) dopamine receptor [40] = molecular target: T6, D(3) dopamine receptor; settings: CHO, 1 uM
Rattus norvegicus [41] = assay: Anxiolytic activity in intraperitoneally dosed 3-months old Wistar rat by Vogel's conflict drinking test; format: functional; settings: ip, read-out: MED
Rattus norvegicus [42] = assay: Anti-depressant-like activity in intraperitoneally dosed 3-months old Wistar rat by Porsolt's forced swim test; format: functional; settings: ip, read-out: MED
Rattus norvegicus [43] = assay: Anxiolytic activity in intraperitoneally dosed 3-months old Wistar rat by open-field test; format: functional; settings: ip, read-out: MED
[44] = Metabolic stability in human liver microsomes assessed as compound remaining after 30 mins at 1 x 10^-7 M (reference value: 100%); format: ADME; settings: read-out: Stability
[45] = Aqueous solubility in simulated gastric fluid at 2 x 10^-4 M; format: physicochemical
[46] = molecular target: 5-hydroxytryptamine receptor 1A (Homo sapiens) (UniProt P08908); settings: HEK293, 1 uM
[47] = Metabolic stability in human liver microsomes assessed as compound remaining after 15 mins at 1 x 10^-7 M (reference value: 100%); format: ADME; settings: read-out: Stability
[48] = Aqueous solubility in PBS buffer at pH 7.4 at 2 x 10^-4 M; format: physicochemical
D(2) dopamine receptor [49] = molecular target: T2, D(2) dopamine receptor; assay: biochemical; remark: listed apart in the source
[50] = molecular target: T8, 5-hydroxytryptamine receptor 7; assay: biochemical
D(3) dopamine receptor [51] = molecular target: T6, D(3) dopamine receptor; assay: Agonist activity at human recombinant dopmaine D3 receptor expressed in CHOK1 cells assessed as effect on cAMP levels; format: functional, cell-based, CHO-K1
[52] = Permeability across basolateral to apical side in human Caco2 cells at 1 x 10^-5 M; format: ADME, cell-based; settings: Caco-2, read-out: permeability

Chain of hERG (KCNH2) (Q12809 whole entry): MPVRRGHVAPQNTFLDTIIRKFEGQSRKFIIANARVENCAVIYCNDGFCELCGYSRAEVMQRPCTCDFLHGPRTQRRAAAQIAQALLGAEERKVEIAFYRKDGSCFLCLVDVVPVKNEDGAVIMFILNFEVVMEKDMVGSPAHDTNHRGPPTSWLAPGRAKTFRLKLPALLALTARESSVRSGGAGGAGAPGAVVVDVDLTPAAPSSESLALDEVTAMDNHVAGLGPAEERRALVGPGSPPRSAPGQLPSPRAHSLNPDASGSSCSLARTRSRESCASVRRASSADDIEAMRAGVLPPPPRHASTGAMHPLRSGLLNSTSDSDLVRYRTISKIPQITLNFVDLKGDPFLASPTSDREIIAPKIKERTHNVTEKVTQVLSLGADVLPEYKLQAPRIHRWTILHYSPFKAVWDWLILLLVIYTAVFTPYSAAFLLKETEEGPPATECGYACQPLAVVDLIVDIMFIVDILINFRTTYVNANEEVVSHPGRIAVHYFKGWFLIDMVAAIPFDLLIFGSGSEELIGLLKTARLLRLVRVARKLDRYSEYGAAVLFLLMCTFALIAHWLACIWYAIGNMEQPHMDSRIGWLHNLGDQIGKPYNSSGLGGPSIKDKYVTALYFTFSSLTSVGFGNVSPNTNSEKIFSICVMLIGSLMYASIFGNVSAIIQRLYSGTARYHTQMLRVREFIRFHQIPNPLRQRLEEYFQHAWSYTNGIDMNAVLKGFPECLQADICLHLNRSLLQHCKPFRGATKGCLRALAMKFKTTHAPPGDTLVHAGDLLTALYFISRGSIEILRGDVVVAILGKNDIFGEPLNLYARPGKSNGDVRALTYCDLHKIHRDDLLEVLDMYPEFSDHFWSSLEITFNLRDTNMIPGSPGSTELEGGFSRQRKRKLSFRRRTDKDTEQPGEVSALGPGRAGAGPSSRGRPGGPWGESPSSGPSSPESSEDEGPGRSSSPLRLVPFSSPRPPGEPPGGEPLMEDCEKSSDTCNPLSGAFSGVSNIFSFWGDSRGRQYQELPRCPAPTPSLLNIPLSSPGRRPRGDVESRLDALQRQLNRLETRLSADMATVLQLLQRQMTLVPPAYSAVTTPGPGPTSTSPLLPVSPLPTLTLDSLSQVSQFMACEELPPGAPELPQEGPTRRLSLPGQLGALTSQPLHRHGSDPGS
T2 sequence (P14416 whole entry): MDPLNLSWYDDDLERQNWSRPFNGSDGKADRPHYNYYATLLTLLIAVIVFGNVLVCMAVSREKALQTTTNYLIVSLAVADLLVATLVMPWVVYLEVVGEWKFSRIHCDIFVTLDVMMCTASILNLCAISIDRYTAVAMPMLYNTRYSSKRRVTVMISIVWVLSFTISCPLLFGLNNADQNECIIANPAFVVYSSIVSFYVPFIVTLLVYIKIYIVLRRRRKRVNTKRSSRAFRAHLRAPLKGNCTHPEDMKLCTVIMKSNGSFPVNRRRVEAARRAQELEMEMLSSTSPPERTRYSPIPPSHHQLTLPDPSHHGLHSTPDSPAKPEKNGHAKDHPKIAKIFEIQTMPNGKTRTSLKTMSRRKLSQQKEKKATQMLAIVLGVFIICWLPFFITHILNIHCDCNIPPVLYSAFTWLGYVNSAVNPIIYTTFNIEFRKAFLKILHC
T6 sequence (P35462 whole entry): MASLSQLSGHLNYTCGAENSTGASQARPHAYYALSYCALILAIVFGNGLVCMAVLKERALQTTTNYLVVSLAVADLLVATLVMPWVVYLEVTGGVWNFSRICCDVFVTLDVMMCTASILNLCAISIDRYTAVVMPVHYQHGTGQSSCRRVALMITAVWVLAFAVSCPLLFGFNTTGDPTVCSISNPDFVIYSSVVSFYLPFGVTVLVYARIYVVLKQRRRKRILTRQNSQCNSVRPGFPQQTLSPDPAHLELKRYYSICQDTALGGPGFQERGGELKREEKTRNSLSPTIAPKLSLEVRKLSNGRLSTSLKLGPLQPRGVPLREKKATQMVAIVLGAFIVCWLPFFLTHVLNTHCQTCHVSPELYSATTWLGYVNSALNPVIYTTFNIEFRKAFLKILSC
T1 sequence (P50406 whole entry): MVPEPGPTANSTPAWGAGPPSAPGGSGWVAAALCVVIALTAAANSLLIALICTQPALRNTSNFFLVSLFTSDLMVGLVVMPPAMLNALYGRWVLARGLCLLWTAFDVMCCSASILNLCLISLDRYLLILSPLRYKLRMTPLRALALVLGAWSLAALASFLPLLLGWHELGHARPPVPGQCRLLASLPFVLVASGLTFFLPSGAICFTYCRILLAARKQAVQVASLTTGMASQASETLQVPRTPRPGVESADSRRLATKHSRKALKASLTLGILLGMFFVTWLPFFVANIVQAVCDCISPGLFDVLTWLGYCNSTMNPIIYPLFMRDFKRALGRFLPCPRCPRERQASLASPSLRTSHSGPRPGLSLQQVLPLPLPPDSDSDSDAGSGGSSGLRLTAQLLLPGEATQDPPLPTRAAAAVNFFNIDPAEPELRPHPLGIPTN
T5 sequence (P35367 whole entry): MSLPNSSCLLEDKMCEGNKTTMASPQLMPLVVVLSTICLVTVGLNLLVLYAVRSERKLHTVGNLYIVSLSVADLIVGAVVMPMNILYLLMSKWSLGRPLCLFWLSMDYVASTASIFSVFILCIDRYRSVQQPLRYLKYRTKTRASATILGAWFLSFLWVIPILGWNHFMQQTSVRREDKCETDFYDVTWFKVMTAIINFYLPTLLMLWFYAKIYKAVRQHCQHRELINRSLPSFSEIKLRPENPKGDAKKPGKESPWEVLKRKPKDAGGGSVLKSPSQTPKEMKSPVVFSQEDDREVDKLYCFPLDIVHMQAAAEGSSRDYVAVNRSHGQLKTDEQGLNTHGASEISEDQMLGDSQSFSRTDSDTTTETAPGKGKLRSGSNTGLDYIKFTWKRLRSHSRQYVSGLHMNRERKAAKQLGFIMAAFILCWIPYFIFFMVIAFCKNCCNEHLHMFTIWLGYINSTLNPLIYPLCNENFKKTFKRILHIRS
T8 sequence (P34969 whole entry): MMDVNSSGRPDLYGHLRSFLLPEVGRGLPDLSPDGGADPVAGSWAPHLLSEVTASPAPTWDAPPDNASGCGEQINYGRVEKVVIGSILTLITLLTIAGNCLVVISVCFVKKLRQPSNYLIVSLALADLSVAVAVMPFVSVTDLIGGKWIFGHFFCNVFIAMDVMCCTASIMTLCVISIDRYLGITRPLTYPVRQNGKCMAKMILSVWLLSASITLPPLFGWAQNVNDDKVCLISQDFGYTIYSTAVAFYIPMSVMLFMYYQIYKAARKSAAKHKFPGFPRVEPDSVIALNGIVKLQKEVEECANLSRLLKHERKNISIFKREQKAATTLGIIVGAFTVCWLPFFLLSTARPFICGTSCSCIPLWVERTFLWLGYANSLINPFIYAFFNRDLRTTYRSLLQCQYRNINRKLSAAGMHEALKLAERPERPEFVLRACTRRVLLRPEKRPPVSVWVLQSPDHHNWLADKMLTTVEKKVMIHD
T7 sequence (P28223 whole entry): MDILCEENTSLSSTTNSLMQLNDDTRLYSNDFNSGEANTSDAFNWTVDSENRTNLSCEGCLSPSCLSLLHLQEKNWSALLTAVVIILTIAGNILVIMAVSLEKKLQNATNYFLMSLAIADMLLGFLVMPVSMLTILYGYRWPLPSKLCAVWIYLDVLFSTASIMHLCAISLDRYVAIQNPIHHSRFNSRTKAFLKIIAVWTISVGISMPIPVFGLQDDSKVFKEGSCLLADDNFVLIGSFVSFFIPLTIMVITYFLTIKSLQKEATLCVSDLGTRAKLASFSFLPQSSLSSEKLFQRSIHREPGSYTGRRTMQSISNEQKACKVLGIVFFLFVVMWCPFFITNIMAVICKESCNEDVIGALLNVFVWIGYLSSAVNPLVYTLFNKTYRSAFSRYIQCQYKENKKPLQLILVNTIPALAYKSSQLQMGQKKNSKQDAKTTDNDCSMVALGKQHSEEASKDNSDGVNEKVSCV
Chain of Voltage-gated inwardly rectifying potassium channel KCNH2 (Q12809 whole entry): as the sequence (Q12809 whole entry) above

SMILES: NC(=O)c1ccccc1OCCCN1CCN(c2cccc3c2ccn3S(=O)(=O)c2ccccc2)CC1
Kb [7]: 1.8 nM | inhibition [8]: < 40% | fraction unbound at 10 µM [9]: < 0.01 | minimal effective dose (Rattus norvegicus [10]): 3 mg/kg | pKi [11]: < 6.00 | pEC50 (D(2) dopamine receptor [12]): 7.27 | pKi [13]: < 6.00 | half-life at 0.1 µM [14]: > 1 h | pKi [15]: < 6.00 | minimal effective dose (Rattus norvegicus [16]): 1 mg/kg | Papp A→B at 10 µM [17]: 0.7 ×10⁻⁶ cm/s | microsomal CLint at 0.1 µM [18]: < 116 µL/min/mg | pKi [19]: 7.77 | inhibition [20]: > 50% | pKi [21]: 8.17 | minimal effective dose (Rattus norvegicus [22]): 3 mg/kg | inhibition (Histamine H1 receptor [23]): > 50% | pKi (D(3) dopamine receptor [24]): 10.00 | solubility at 200 µM [25]: 97.3 µM (≈ 50.5 µg/mL) | pKi (D(1A) dopamine receptor): < 6.00 | inhibition [26]: > 90% | remaining at 1 h, 0.1 µM [27]: 57.9% | inhibition [28]: < 40% | inhibition [29]: < 40% | minimal effective dose (Rattus norvegicus [30]): 1 mg/kg | pKi (Histamine H1 receptor [31]): 6.80 | inhibition [32]: > 50% | remaining at 0.75 h, 0.1 µM [33]: 68% | pKi (D(4) dopamine receptor): 8.15 | inhibition [34]: > 90% | pKi [35]: 7.54 | pKi [36]: 6.72 | pIC50 [37]: 5.21 | pKi [5]: 9.00 | inhibition [38]: > 50% | Activity (Rattus norvegicus [39]): Non-toxic | inhibition (D(3) dopamine receptor [40]): > 90% | minimal effective dose (Rattus norvegicus [41]): 1 mg/kg | minimal effective dose (Rattus norvegicus [42]): 1 mg/kg | minimal effective dose (Rattus norvegicus [43]): 1 mg/kg | remaining at 0.5 h, 0.1 µM [44]: 79.3% | solubility at 200 µM [45]: 200 µM (≈ 104 µg/mL) | inhibition [46]: > 90% | remaining at 0.25 h, 0.1 µM [47]: 90.6% | solubility at 200 µM [48]: 7 µM (≈ 3.63 µg/mL) | pKi (D(2) dopamine receptor [49]): 8.20 | pKi [50]: 6.74 | pKi (D(2) dopamine receptor [6]): 8.20 | pEC50 (D(3) dopamine receptor [51]): < 6.00 | Papp B→A at 10 µM [52]: 0.3 ×10⁻⁶ cm/s

SMILES: O=C1CCc2ccc(OCCCCN3CCN(c4cccc5c4ccn5Cc4cccc(Cl)c4)CC3)cc2N1
inhibition [1]: 0% | inhibition (D(2) dopamine receptor [2]): 99% | inhibition (D(2) dopamine receptor [3]): 37% | inhibition [4]: 78% | inhibition at 1 µM (hERG (KCNH2)): 9%

SMILES: COc1ccc(NS(=O)(=O)c2sc3ccc(Cl)cc3c2C)cc1N1CCNCC1
minimal effective dose (Rattus norvegicus [41]): 3 mg/kg | minimal effective dose (Rattus norvegicus [42]): 10 mg/kg

Continued, in another order:

inhibition [1]: 0% | inhibition (D(2) dopamine receptor [2]): 99% | inhibition (D(2) dopamine receptor [3]): 39% | inhibition [4]: 94% | pKi [5]: 7.70 | pKi (D(2) dopamine receptor [6]): 8.21
SMILES: O=C1CCc2ccc(OCCCCN3CCN(c4cccc5c4ccn5Cc4cccc(F)c4)CC3)cc2N1
inhibition at 1 µM (hERG (KCNH2)): 18%

inhibition [1]: 0% | inhibition (D(2) dopamine receptor [2]): 97% | inhibition (D(2) dopamine receptor [3]): 42% | inhibition [4]: 99% | pKi [5]: 7.89 | pKi (D(2) dopamine receptor [6]): 7.70
SMILES: O=C1CCc2ccc(OCCCCN3CCN(c4cccc5c4ccn5Cc4ccccc4)CC3)cc2N1
inhibition at 1 µM (hERG (KCNH2)): 14%

inhibition [1]: 0% | inhibition (D(2) dopamine receptor [2]): 100% | inhibition (D(2) dopamine receptor [3]): 48% | inhibition [4]: 37% | pKi [5]: 9.40
SMILES: O=C1CCc2ccc(OCCCCN3CCN(c4cccc5c4ccn5S(=O)(=O)c4ccccc4)CC3)cc2N1
inhibition at 1 µM (hERG (KCNH2)): 13%
